Entries after “also recorded” stand apart in the source; their conditions may differ.
Experiments:
[1] = tested on: Balb/C mice; assay: ELISA for subclass (IgG1/IgG2a) of HBsAg specific antibody; type: in vivo; settings: Example 6; HBsAg specific antibody in serum; FIG. 15
[2] = tested on: Balb/C mice; assay: g-IFN ELISPOT after PMID with HBV sAg/cAg plasmid; type: in vivo
[3] = tested on: Balb/C mice; assay: Anti-sAg and anti-cAg antibody ELISAs after PMID with HBV sAg/cAg plasmid; type: in vivo; settings: Example 7; either HBV antigen (sAg, cAg); data not shown
[4] = tested on: Balb/C mice; assay: IL-4 ELISPOT after PMID with HBV sAg/cAg plasmid; type: in vivo
[5] = tested on: Balb/C mice; settings: Example 2; prime and boost, HBsAg plasmid with HCMV promoter; FIG. 3
[6] = tested on: Balb/C mice; assay: IFN-g ELISPOT of spleen cells after HBsAg DNA vaccine immunization; settings: Example 2; prime and boost; FIG. 4
[7] = tested on: Balb/C mice; assay: CD8 IFN-g ELISA of spleen cells after HBsAg DNA vaccine immunization; settings: Example 2; prime and boost; FIG. 4
[8] = Example 7, summary of both experiments

Row | SMILES | ratio of IgG1/IgG2a [1] | g-IFN secretion ([2]; Example 7, first experiment, highest dose of DNA, delivered right before or right after PMID) | g-IFN secretion ([2]; Example 7, first experiment, highest dose of DNA, given 24 hours after PMID) | g-IFN secretion ([2]; Example 7, first experiment, low doses of DNA, administration 24 hours post PMID compared with other time points) | g-IFN secretion ([2]; Example 7, first experiment, low doses of HBV-encoding DNA, right before, right after or 24 hours post PMID) | g-IFN response with class I-restricted peptide (CD8+ cells) ([2]; Example 7, first experiment, not shown) | frequency of cells which secreted g-IFN in response to antigen ([2]; Example 7, first experiment, sAg peptide library (primarily CD4+ cells), 2 weeks post prime, FIG. 16) | IFN-g ELISPOT response [2, 8] | optimal time point for augmenting g-IFN-secreting cells ([2]; Example 7, time of administration relative to PMID) | antibody titers [3] | IL-4 secretion, as measured by ELISPOT assay ([4]; Example 7, first experiment (prime only), not shown) | EL-4 ELISPOTs [4, 8] | Antibody levels [5] | cellular response, ELISPOTs [6] | cellular response, IFN-g ELISA [7]
1 | CCCCC[C@H](O)/C=C/[C@H]1[C@H](O)CC(=O)[C@@H]1C/C=C\CCCC(=O)O [PGE2] | does not have the same effect overall | – | – | – | – | – | – | – | – | – | – | – | – | – | –
2 | CC(C)Cn1cnc2c(N)nc3ccccc3c21 [imiquimod, 1-(2-methyl-propyl)-1H-imidazo[4,5-c]quinolin-4-amine] | – | slightly inhibitory | augments PMID | most effective | enhances g-IFN secretion | comaparable responses | enhancement of the frequency of cells which secreted g-IFN | primarily enhanced; also recorded: augments the frequency of g-IFN-secreting cells | about a day and upto 7 days after PMID | little effect; also recorded: did not enhance antibody responses | no effect | little effect | strong reduction in antibody levels | enhanced the responses | enhanced the responses
